# What was measured:
# Assay type in all cases: cell-based
# Aspergillus niger [1] = assay: MIC, RPMI medium; details: MIC banded into grades; for MIC: Aspergillus niger, read-out: MIC grade, A. niger
# Outline: (§1)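 Broth microdilution in RPMI with 2% glucose, 0.135 M MOPS pH 7.0; compounds as doubling dilutions, 50-0.05 mg/L, inoculum 1−2×10^4 cfu/mL. Incubated 24-48 h at 35° C; growth by OD 485 nm. MIC is lowest concentration giving >80% growth inhibition versus drug-free control.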
# [2] = system: Aspergillus fumigatus AF210; assay: MIC, RPMI medium; details: for MIC: Aspergillus fumigatus, AF210, MIC banded into grades, read-out: MIC grade, A. fumigatus 210; for MIC grade, A. fumigatus 210: MIC banded into grades
# Outline: as §1
# Aspergillus terreus AT49 [3] = assay: MIC, RPMI medium; details: for MIC: Aspergillus terreus, AT49, MIC banded into grades, read-out: MIC grade, A. terreus 49; for MIC grade, A. terreus 49: MIC banded into grades
# Outline: as §1
# Aspergillus flavus [4] = assay: MIC, RPMI medium; details: MIC banded into grades; for MIC: Aspergillus flavus, read-out: MIC grade, A. flavus
# Outline: as §1
# [5] = system: Aspergillus fumigatus AF293; assay: MIC, RPMI medium; details: for MIC: Aspergillus fumigatus, AF293, MIC banded into grades, read-out: MIC grade, A. fumigatus; for MIC grade, A. fumigatus: MIC banded into grades
# Outline: as §1
# Aspergillus terreus AT4 [6] = assay: MIC, RPMI medium; details: for MIC: Aspergillus terreus, AT4, MIC banded into grades, read-out: MIC grade, A. terreus; for MIC grade, A. terreus: MIC banded into grades
# Outline: as §1
# Aspergillus niger [7] = assay: MIC, YAG medium; details: 24 h at 35° C, MIC banded into grades; for MIC: Aspergillus niger, read-out: MIC grade, A. niger
# Outline: (§2)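 Growth inhibition was measured by absorbance at 485 nm following 24 h at 35° C. Spores harvested after 5 days on Sabouraud agar served as inoculum (1−2×10^4 cfu/mL, YAG medium). The lowest drug level producing >70% inhibition was taken as MIC.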
# [8] = system: Aspergillus fumigatus AF210; assay: MIC, YAG medium; details: 24 h at 35° C, MIC banded into grades; for MIC: Aspergillus fumigatus, read-out: MIC grade, A. fumigatus 210
# Outline: as §2
# Aspergillus terreus AT49 [9] = assay: MIC, YAG medium; details: 24 h at 35° C, MIC banded into grades; for MIC: Aspergillus terreus, read-out: MIC grade, A. terreus 49
# Outline: as §2
# Aspergillus flavus [10] = assay: MIC, YAG medium; details: 24 h at 35° C, MIC banded into grades; for MIC: Aspergillus flavus, 24 h, read-out: MIC grade, A. flavus
# Outline: as §2
# [11] = system: Aspergillus fumigatus AF293; assay: MIC, YAG medium; details: 24 h at 35° C, MIC banded into grades; for MIC: Aspergillus fumigatus, read-out: MIC grade, A. fumigatus
# Outline: as §2
# Aspergillus terreus AT4 [12] = assay: MIC, YAG medium; details: 24 h at 35° C, MIC banded into grades; for MIC: Aspergillus terreus, read-out: MIC grade, A. terreus
# Outline: as §2
MIC (Aspergillus niger [1]),MIC [2],MIC (Aspergillus terreus AT49 [3]),MIC (Aspergillus flavus [4]),MIC [5],MIC (Aspergillus terreus AT4 [6]),MIC (Aspergillus niger [7]),MIC [8],MIC (Aspergillus terreus AT49 [9]),MIC (Aspergillus flavus [10]),MIC [11],MIC (Aspergillus terreus AT4 [12]),SMILES,further results
< 1 µg/mL,< 1 µg/mL,< 1 µg/mL,< 1 µg/mL,< 1 µg/mL,< 1 µg/mL,< 1 µg/mL,< 1 µg/mL,< 1 µg/mL,< 1 µg/mL,< 1 µg/mL,< 1 µg/mL,"C=C(C)CN1CCN(c2ccc(NC(=O)C(=O)c3c(-c4ccccc4)cc(C)n3C)c(F)c2)CC1 [Example 108, 2-(1,5-Dimethyl-3-phenyl-1H-pyrrol-2-yl)-N-{2-fluoro-4-[4-(2-methyl-allyl)-piperazin-1-yl]-phenyl}-2-oxo-acetamide]",–
> 10 µg/mL,> 10 µg/mL,1 to 10 µg/mL,> 10 µg/mL,> 10 µg/mL,> 10 µg/mL,> 10 µg/mL,< 1 µg/mL,< 1 µg/mL,> 10 µg/mL,> 10 µg/mL,< 1 µg/mL,"Cc1cc(C)nc(N2CCN(c3ccc(NC(=O)C(=O)c4c(-c5ccccc5)cc(C(C)C)n4C)cc3)CC2)c1 [Example 20, N-{4-[4-(4,6-Dimethyl-pyridin-2-yl)-piperazin-1-yl]-phenyl}-2-(5-isopropyl-1-methyl-3-phenyl-1H-pyrrol-2-yl)-2-oxo-acetamide]",–
–,–,–,–,–,–,–,–,–,–,–,–,"COC(=O)n1c(C)cc(-c2ccccc2)c1C(=O)C(=O)Nc1ccc(N2CCN(c3cc(C)cc(C)n3)CC2)cc1 [Example 56, 2-{4-[4-(4,6-Dimethyl-pyridin-2-yl)-piperazin-1-yl]-phenylaminooxalyl}-5-methyl-3-phenyl-pyrrole-1-carboxylic acid methyl ester]","MIC grade, A. niger (Aspergillus niger [1]): 1 (a grade of 1 represents an MIC of greater than 10 mg/L); MIC grade, A. fumigatus 210 [2]: 1 (a grade of 1 represents an MIC of greater than 10 mg/L); MIC grade, A. terreus 49 (Aspergillus terreus AT49 [3]): 1 (a grade of 1 represents an MIC of greater than 10 mg/L); MIC grade, A. flavus (Aspergillus flavus [4]): 1 (a grade of 1 represents an MIC of greater than 10 mg/L); MIC grade, A. fumigatus [5]: 1 (a grade of 1 represents an MIC of greater than 10 mg/L); MIC grade, A. terreus (Aspergillus terreus AT4 [6]): 1 (a grade of 1 represents an MIC of greater than 10 mg/L); MIC grade, A. niger (Aspergillus niger [7]): 2 (A grade of 2 represents an MIC of from 1 to 10 mg/L); MIC grade, A. fumigatus 210 [8]: 2 (A grade of 2 represents an MIC of from 1 to 10 mg/L); MIC grade, A. terreus 49 (Aspergillus terreus AT49 [9]): 2 (A grade of 2 represents an MIC of from 1 to 10 mg/L); MIC grade, A. flavus (Aspergillus flavus [10]): 1 (a grade of 1 represents an MIC of greater than 10 mg/L); MIC grade, A. fumigatus [11]: 2 (A grade of 2 represents an MIC of from 1 to 10 mg/L); MIC grade, A. terreus (Aspergillus terreus AT4 [12]): 2 (A grade of 2 represents an MIC of from 1 to 10 mg/L)"
1 to 10 µg/mL,1 to 10 µg/mL,> 10 µg/mL,> 10 µg/mL,> 10 µg/mL,> 10 µg/mL,1 to 10 µg/mL,< 1 µg/mL,1 to 10 µg/mL,1 to 10 µg/mL,< 1 µg/mL,1 to 10 µg/mL,"COCCn1c(C)cc(C(C)C)c1C(=O)C(=O)Nc1ccc(N2CCN(c3cc(C)cc(C)n3)CC2)cc1 [Example 25, N-{4-[4-(4,6-Dimethyl-pyridin-2-yl)-piperazin-1-yl]-phenyl}-2-[3-isopropyl-1-(2-methoxy-ethyl)-5-methyl-1H-pyrrol-2-yl]-2-oxo-acetamide]",–
–,–,–,–,–,–,–,–,–,–,–,–,Cc1cc(C)nc(N2CCN(c3ccc(NC(=O)C(=O)c4c(-c5ccccc5)cc5n4CCCCC5)cc3)CC2)c1 [41 a],"MIC grade, A. niger (Aspergillus niger [1]): 1 (a grade of 1 represents an MIC of greater than 10 mg/L); MIC grade, A. fumigatus 210 [2]: 1 (a grade of 1 represents an MIC of greater than 10 mg/L); MIC grade, A. terreus 49 (Aspergillus terreus AT49 [3]): 3 (A grade of 3 represents an MIC of less than 1 mg/L); MIC grade, A. flavus (Aspergillus flavus [4]): 1 (a grade of 1 represents an MIC of greater than 10 mg/L); MIC grade, A. fumigatus [5]: 2 (A grade of 2 represents an MIC of from 1 to 10 mg/L); MIC grade, A. terreus (Aspergillus terreus AT4 [6]): 2 (A grade of 2 represents an MIC of from 1 to 10 mg/L); MIC grade, A. niger (Aspergillus niger [7]): 3 (A grade of 3 represents an MIC of less than 1 mg/L); MIC grade, A. fumigatus 210 [8]: 3 (A grade of 3 represents an MIC of less than 1 mg/L); MIC grade, A. terreus 49 (Aspergillus terreus AT49 [9]): 3 (A grade of 3 represents an MIC of less than 1 mg/L); MIC grade, A. flavus (Aspergillus flavus [10]): 3 (A grade of 3 represents an MIC of less than 1 mg/L); MIC grade, A. fumigatus [11]: 3 (A grade of 3 represents an MIC of less than 1 mg/L); MIC grade, A. terreus (Aspergillus terreus AT4 [12]): 3 (A grade of 3 represents an MIC of less than 1 mg/L)"
< 1 µg/mL,< 1 µg/mL,< 1 µg/mL,< 1 µg/mL,< 1 µg/mL,< 1 µg/mL,< 1 µg/mL,< 1 µg/mL,< 1 µg/mL,< 1 µg/mL,< 1 µg/mL,< 1 µg/mL,"Cc1cc(-c2ccccc2)c(C(=O)C(=O)Nc2ccc(N3CCOCC3)cc2)n1C [Example 154, 2-(1,5-Dimethyl-3-phenyl-1H-pyrrol-2-yl)-N-(4-morpholin-4-yl-phenyl)-2-oxo-acetamide]",–
> 10 µg/mL,> 10 µg/mL,> 10 µg/mL,> 10 µg/mL,> 10 µg/mL,> 10 µg/mL,> 10 µg/mL,> 10 µg/mL,> 10 µg/mL,> 10 µg/mL,> 10 µg/mL,> 10 µg/mL,"CC(=O)NCCn1c(C)cc(-c2ccccc2)c1C(=O)C(=O)Nc1ccc(N2CCN(c3cc(C)cc(C)n3)CC2)cc1 [Example 65, 2-[1-(2-Acetylamino-ethyl)-5-methyl-3-phenyl-1H-pyrrol-2-yl]-N-{4-[4-(4,6-dimethyl-pyridin-2-yl)-piperazin-1-yl]-phenyl}-2-oxo-acetamide]",–
> 10 µg/mL,> 10 µg/mL,> 10 µg/mL,> 10 µg/mL,> 10 µg/mL,> 10 µg/mL,> 10 µg/mL,> 10 µg/mL,1 to 10 µg/mL,1 to 10 µg/mL,1 to 10 µg/mL,1 to 10 µg/mL,"Cc1cc(C)nc(N2CCN(c3ccc(NC(=O)C(=O)c4c(-c5ccccc5)cc(C)n4CCOc4ccccc4)cc3)CC2)c1 [Example 134, N-{4-[4-(4,6-Dimethyl-pyridin-2-yl)-piperazin-1-yl]-phenyl}-2-[5-methyl-1-(2-phenoxy-ethyl)-3-phenyl-1H-pyrrol-2-yl]-2-oxo-acetamide]",–
< 1 µg/mL,< 1 µg/mL,< 1 µg/mL,< 1 µg/mL,< 1 µg/mL,< 1 µg/mL,< 1 µg/mL,< 1 µg/mL,< 1 µg/mL,< 1 µg/mL,< 1 µg/mL,< 1 µg/mL,"COCC(C)N1CCN(c2ccc(NC(=O)C(=O)c3c(-c4ccccc4)cc(C)n3C)cc2)CC1 (stereo not drawn) [Example 151, 2-(1,5-Dimethyl-3-phenyl-1H-pyrrol-2-yl)-N-{4-[4-(2-methoxy-1-methyl-ethyl)-piperazin-1-yl]-phenyl}-2-oxo-acetamide]",–
< 1 µg/mL,< 1 µg/mL,< 1 µg/mL,< 1 µg/mL,< 1 µg/mL,< 1 µg/mL,< 1 µg/mL,< 1 µg/mL,< 1 µg/mL,< 1 µg/mL,< 1 µg/mL,< 1 µg/mL,"Cc1cc(-c2ccccc2)c(C(=O)C(=O)Nc2ccc(N3CCOCC3)cc2F)n1C [Example 101, 2-(1,5-Dimethyl-3-phenyl-1H-pyrrol-2-yl)-N-(2-fluoro-4-morpholin-4-yl-phenyl)-2-oxo-acetamide]",–
< 1 µg/mL,< 1 µg/mL,< 1 µg/mL,< 1 µg/mL,< 1 µg/mL,< 1 µg/mL,< 1 µg/mL,< 1 µg/mL,< 1 µg/mL,< 1 µg/mL,< 1 µg/mL,< 1 µg/mL,"CCc1cc(-c2ccccc2)c(C(=O)C(=O)Nc2ccc(N3CCN(c4cc(C)cc(C)n4)CC3)cc2)n1C [Example 53, N-{4-[4-(4,6-Dimethyl-pyridin-2-yl)-piperazin-1-yl]-phenyl}-2-(5-ethyl-1-methyl-3-phenyl-1H-pyrrol-2-yl)-2-oxo-acetamide]",–

# — patent US8993574B2, “Pyrrole antifungal agents” (F2G Ltd, priority 2008, dated 2015)
